Measurements: patent US11214803B2, “Modulators of YAP1 expression” (Ionis Pharmaceuticals, Inc., priority 2019, dated 2022)
Strand notation (5' to 3'): a small letter for the sugar, then the base; units joined by * are phosphorothioate-linked, units joined directly phosphodiester-linked; [ ] holds rarer units or linkages, { } end groups; capitals alone tell only the bases. k = constrained ethyl (cEt); [5mC] = 5-methylcytosine; d = 2'-deoxy (DNA)

Assays:
[1] = tested on: Yap1 mRNA; experiment: Yap1 mRNA in SCC-15 cells, RNA analysis (Example 41); format: cell-based, human; conditions: free uptake, approximately 48 hours
Description: Modified oligonucleotides described in the studies above were tested at various doses in tongue squamous cell carcinoma cell line SCC-15. A control oligonucleotide 792169, described herein above, was also tested.
Cultured SCC-15 cells at a density of 5000 cells per well were treated using free uptake with modified oligonucleotides diluted to concentrations described in the tables below. After approximately 48 hours, Yap1 mRNA levels were measured as previously described using the Human Yap1 primer-probe set RTS4814. Yap1 mRNA levels were normalized to actin-beta content, as measured by primer probe set RTS5002. Results are presented in the tables below as percent control of the amount of Yap1 mRNA relative to untreated control cells (% UTC).

[2] = tested on: SNU449 cells; experiment: Cell proliferation assay in SNU449 cells in combination with sorafenib, CellTiter-Glo (Example 48); format: cell-based, human; conditions: 144 hours
Description: Modified oligonucleotides described in the studies above were tested at various doses in hepatocellular carcinoma cell line SNU449. ION No. 792169, described herein above, was used as a control modified oligonucleotide. ION No. 715487 was used to target Yap1 RNA. […] After approximately 48 hours, Yap1 mRNA levels were measured.
144 hours post treatment, proliferation of SNU449 cells was measured using the luminescent cell viability CellTiter-Glo® 2.0 Assay (Promega). Results are presented in the tables below as percent control of the amount of luminescence in samples treated with modified oligonucleotides relative to untreated control cells (% UTC).

[3] = tested on: Yap1 mRNA; experiment: Yap1 mRNA in UPCI:SCC090 cells, RNA analysis (Example 47); format: cell-based, human; conditions: free uptake, approximately 48 hours
Description: Modified oligonucleotides described in the studies above were tested at various doses in tongue squamous cell carcinoma cell line UPCI:SCC090. A control oligonucleotide 792169, described herein above, was also tested.
Cultured UPCI:SCC090 cells at a density of 5000 cells per well were treated using free uptake with modified oligonucleotides diluted to concentrations described in the tables below. After approximately 48 hours, Yap1 mRNA levels were measured as previously described using the Human Yap1 primer-probe set RTS4814. Yap1 mRNA levels were normalized to actin-beta content, as measured by primer probe set RTS5002. Results are presented in the tables below as percent control of the amount of Yap1 mRNA relative to untreated control cells (% UTC).

[4] = tested on: NCI H747 cells; experiment: Cell proliferation assay in NCI H747 cells, CellTiter-Glo (Example 31); format: cell-based, human; conditions: free uptake, 7 days
Description: Modified oligonucleotides described in the studies above were tested at various doses in colorectal adenocarcinoma cell line NCI H747. A control oligonucleotide 792169 was also tested.
Cultured NCI H747 cells at a density of 3000 cells/well were treated using free uptake with modified oligonucleotides diluted to concentrations described in the tables below. After 7 days, cell proliferation was measured using the luminescent cell viability CellTiter-Glo® 2.0 Assay (Promega). Results are presented in the tables below as percent control of the amount of luminescence in samples treated with modified oligonucleotides relative to untreated control cells (% UTC).

[5] = tested on: Yap1 mRNA; experiment: Yap1 mRNA in SNU-899 cells, RNA analysis (Example 43); format: cell-based, human; conditions: free uptake, approximately 48 hours
Description: Modified oligonucleotides described in the studies above were tested at various doses in laryngeal squamous cell carcinoma cell line SNU-899. A control oligonucleotide 792169, described herein above, was also tested.
Cultured SNU-899 cells at a density of 5000 cells per well were treated using free uptake with modified oligonucleotides diluted to concentrations described in the tables below. After approximately 48 hours, Yap1 mRNA levels were measured as previously described using the Human Yap1 primer-probe set RTS4814. Yap1 mRNA levels were normalized to actin-beta content, as measured by primer probe set RTS5002. Results are presented in the tables below as percent control of the amount of Yap1 mRNA relative to untreated control cells (% UTC).

[6] = tested on: SNU449 xenograft tumor; experiment: Tumor volume in SNU449 xenograft tumor model, alone and in combination with sorafenib (second Example 30); format: in vivo, human; conditions: SNU449 xenograft, oligonucleotide 50 mg/kg, sorafenib 30 mg/kg orally
Description: Modified oligonucleotides described in the studies above were tested in a hepatocellular carcinoma SNU449 xenograft tumor model. […] A control oligonucleotide 792169, described herein above, was also tested.
Five million SNU449 cells in 30% matrigel were implanted subcutaneously into the fatpads of female NOD.Cg-Prkdcscid II2rgtmlWjl/SzJ mice (from Jackson Laboratory) at 4-6 weeks of age. 43 days post implantation (when tumors had reached approximately 100 mm^3 in size), groups of eight mice each were administered with 50 mg/kg modified oligonucleotide daily for 10 days (loading dose), following which they were administered with 50 mg/kg modified oligonucleotide four times a week for one week, following which they were dosed with 50 mg/kg modified oligonucleotide thrice weekly until the end of the study. […] Animals were sacrificed, and tumors were collected on day 119 post implantation.
Tumor volumes were also measured at the indicated days in the table below.

## 715487 (kA*kT*kT*dA*d[5mC]*dT*dT*d[5mC]*dA*dT*dA*dG*d[5mC]*kT*kT*kA) [compound 715487]
[1]; 0.04 μM
  human Yap1 mRNA expression: 69 % UTC
[1]; 0.2 μM
  human Yap1 mRNA expression: 33 % UTC
[1]; 1 μM
  human Yap1 mRNA expression: 12 % UTC
[1]; 5 μM
  human Yap1 mRNA expression: 5 % UTC
[2]; oligonucleotide at 0.04 uM, sorafenib 0 uM
  Antiproliferative effect (cell proliferation, luminescence): 98 % UTC
[2]; oligonucleotide at 0.04 uM, sorafenib 0.37 uM
  Antiproliferative effect (cell proliferation, luminescence): 102 % UTC
[2]; oligonucleotide at 0.04 uM, sorafenib 3.33 uM
  Antiproliferative effect (cell proliferation, luminescence): 27 % UTC
[2]; oligonucleotide at 0.04 uM, sorafenib 10 uM
  Antiproliferative effect (cell proliferation, luminescence): 2 % UTC
[2]; oligonucleotide at 0.04 uM, sorafenib […]
  Antiproliferative effect (cell proliferation, luminescence): 93 % UTC
[2]; oligonucleotide at 0.2 uM, sorafenib 0 uM
  Antiproliferative effect (cell proliferation, luminescence): 93 % UTC
[2]; oligonucleotide at 0.2 uM, sorafenib 0.37 uM
  Antiproliferative effect (cell proliferation, luminescence): 94 % UTC
[2]; oligonucleotide at 0.2 uM, sorafenib 3.33 uM
  Antiproliferative effect (cell proliferation, luminescence): 12 % UTC
[2]; oligonucleotide at 0.2 uM, sorafenib 10 uM
  Antiproliferative effect (cell proliferation, luminescence): 2 % UTC
[2]; oligonucleotide at 0.2 uM, sorafenib […]
  Antiproliferative effect (cell proliferation, luminescence): 77 % UTC
[2]; oligonucleotide at 1 uM, sorafenib 0 uM
  Antiproliferative effect (cell proliferation, luminescence): 84 % UTC
[2]; oligonucleotide at 1 uM, sorafenib 0.37 uM
  Antiproliferative effect (cell proliferation, luminescence): 83 % UTC
[2]; oligonucleotide at 1 uM, sorafenib 3.33 uM
  Antiproliferative effect (cell proliferation, luminescence): 5 % UTC
[2]; oligonucleotide at 1 uM, sorafenib 10 uM
  Antiproliferative effect (cell proliferation, luminescence): 1 % UTC
[2]; oligonucleotide at 1 uM, sorafenib […]
  Antiproliferative effect (cell proliferation, luminescence): 45 % UTC
[2]; oligonucleotide at 5 uM, sorafenib 0 uM
  Antiproliferative effect (cell proliferation, luminescence): 64 % UTC
[2]; oligonucleotide at 5 uM, sorafenib 0.37 uM
  Antiproliferative effect (cell proliferation, luminescence): 64 % UTC
[2]; oligonucleotide at 5 uM, sorafenib 3.33 uM
  Antiproliferative effect (cell proliferation, luminescence): 3 % UTC
[2]; oligonucleotide at 5 uM, sorafenib 10 uM
  Antiproliferative effect (cell proliferation, luminescence): 1 % UTC
[2]; oligonucleotide at 5 uM, sorafenib […]
  Antiproliferative effect (cell proliferation, luminescence): 23 % UTC
[3]; 0.04 μM
  human Yap1 mRNA expression: 70 % UTC
[3]; 0.2 μM
  human Yap1 mRNA expression: 37 % UTC
[3]; 1 μM
  human Yap1 mRNA expression: 26 % UTC
[3]; 5 μM
  human Yap1 mRNA expression: 14 % UTC
[4]; 0.04 μM
  Antiproliferative effect (cell proliferation, luminescence): 91 % UTC
[4]; 0.2 μM
  Antiproliferative effect (cell proliferation, luminescence): 86 % UTC
[4]; 1 μM
  Antiproliferative effect (cell proliferation, luminescence): 65 % UTC
[4]; 5 μM
  Antiproliferative effect (cell proliferation, luminescence): 42 % UTC
[5]; 0.04 μM
  human Yap1 mRNA expression: 62 % UTC
[5]; 0.2 μM
  human Yap1 mRNA expression: 26 % UTC
[5]; 1 μM
  human Yap1 mRNA expression: 9 % UTC
[5]; 5 μM
  human Yap1 mRNA expression: 4 % UTC

## 1198440 (AAGTGTATGTCAGAAG; cEt, 2'-MOE, 5-methylcytosine, phosphorothioate modifications, further chemistry not given here) [compound 1198440]
[1]; 0.04 μM
  human Yap1 mRNA expression: 39 % UTC
[1]; 0.2 μM
  human Yap1 mRNA expression: 10 % UTC
[1]; 1 μM
  human Yap1 mRNA expression: 4 % UTC
[1]; 5 μM
  human Yap1 mRNA expression: 2 % UTC
[3]; 0.04 μM
  human Yap1 mRNA expression: 60 % UTC
[3]; 0.2 μM
  human Yap1 mRNA expression: 26 % UTC
[3]; 1 μM
  human Yap1 mRNA expression: 10 % UTC
[3]; 5 μM
  human Yap1 mRNA expression: 5 % UTC
[6]; day 43 post tumor implantation
  Average Tumor Volume: 111 mm^3
[6]; day 46 post tumor implantation
  Average Tumor Volume: 152 mm^3
[6]; day 50 post tumor implantation
  Average Tumor Volume: 168 mm^3
[6]; day 53 post tumor implantation
  Average Tumor Volume: 201 mm^3
[6]; day 57 post tumor implantation
  Average Tumor Volume: 242 mm^3
[6]; day 60 post tumor implantation
  Average Tumor Volume: 263 mm^3
[6]; day 64 post tumor implantation
  Average Tumor Volume: 338 mm^3
[6]; day 67 post tumor implantation
  Average Tumor Volume: 376 mm^3
[6]; day 71 post tumor implantation
  Average Tumor Volume: 373 mm^3
[6]; day 75 post tumor implantation
  Average Tumor Volume: 401 mm^3
[6]; day 78 post tumor implantation
  Average Tumor Volume: 429 mm^3
[6]; day 81 post tumor implantation
  Average Tumor Volume: 514 mm^3
[6]; day 85 post tumor implantation
  Average Tumor Volume: 606 mm^3
[6]; day 88 post tumor implantation
  Average Tumor Volume: 613 mm^3
[6]; day 92 post tumor implantation
  Average Tumor Volume: 690 mm^3
[6]; day 94 post tumor implantation
  Average Tumor Volume: 773 mm^3
[6]; day 98 post tumor implantation
  Average Tumor Volume: 804 mm^3
[6]; day 101 post tumor implantation
  Average Tumor Volume: 818 mm^3
[6]; day 105 post tumor implantation
  Average Tumor Volume: 894 mm^3
[6]; day 108 post tumor implantation
  Average Tumor Volume: 921 mm^3
[6]; day 119 post tumor implantation
  Average Tumor Volume: 978 mm^3
[4]; 0.04 μM
  Antiproliferative effect (cell proliferation, luminescence): 87 % UTC
[4]; 0.2 μM
  Antiproliferative effect (cell proliferation, luminescence): 66 % UTC
[4]; 1 μM
  Antiproliferative effect (cell proliferation, luminescence): 36 % UTC
[4]; 5 μM
  Antiproliferative effect (cell proliferation, luminescence): 18 % UTC
[5]; 0.04 μM
  human Yap1 mRNA expression: 35 % UTC
[5]; 0.2 μM
  human Yap1 mRNA expression: 12 % UTC
[5]; 1 μM
  human Yap1 mRNA expression: 3 % UTC
[5]; 5 μM
  human Yap1 mRNA expression: 2 % UTC
